Test results from patent US6262064A, “Octahydrobenzo[f]quinoline-based receptor agonists and antagonists” (priority 1999, dated 2001).
Like-named read-outs stand apart in the source and are kept apart here.

Assays:
[1] = biological target: T1, 5HT2 serotonin receptor (Rattus norvegicus, UniProt P14842); test: Serotonin (5HT2) binding assay ([3H]Ketanserin)
T1 construct: rat cortical membranes; from tissue; host or cells: rat cortex membranes
Experimental: The final ligand concentration was 1.0 nM.

[2] = tested on: alpha1-adrenergic receptor; settings: for α1 receptor binding affinity: in words
Experimental: In these assays, the binding reaction was initiated by the addition of varying concentrations of the potential binding composition and a radioligand to an appropriate tissue. The assay was then incubated to allow binding. Binding was then terminated by dilution of the assay with a cold buffer, followed by rapid vacuum filtration onto Whatman GI/C filters that were presoaked in 0.1% polyethylene imine for at least 3 hours. Radioactivity trapped onto the filters was determined and compared to control values in order to ascertain any interactions of test compounds with the binding sites. Binding affinity analyses were performed by Novascreen, Division of the Adheron Corporation, Hanover, Md.
Incubation was conducted in 50 mM TRIS-HCl (pH 7.7) at 25° C. for 60 minutes. […] The final ligand concentration was 0.5 nm.

[3] = biological target: T2, D2 dopamine receptor (Rattus norvegicus, UniProt P61169); test: Dopamine D2 binding assay ([3H]Sulpiride); settings: for dopamine receptor binding affinity / selectivity for the D2 over the D1 dopamine receptor: in words
T2 construct: rat striatal membranes; from tissue; host or cells: rat striatum membranes
Experimental: The final ligand concentration was 0.5 nM.

[4] = biological target: T3, D2 receptor (Rattus norvegicus, UniProt P61169); test: D2 receptor agonist evaluation (membrane binding with and without Gpp(NH)p); settings: for D2 agonist/antagonist assessment / effect of GTP on D2 receptor binding: in words
T3 construct: expressed in transfected cells
Experimental: To determine the D2, D3 or D4 receptor selectivity, competition binding assays were performed using membranes from fibroblast cell lines transfected with D2444 (rat), D3 (human) or D4 (rat) receptors. All cell lines were maintained in Dulbecco's modified Eagle's media (DMEM) supplemented with 10 % fetal bovine serum at 37° C. with 5% CO2. Transfected cells were maintained in DMEM containing 300 μg/mL of the antibiotic G418 (Gibco).
To determine whether or not compounds of this invention were D2 receptor agonists, a membrane binding assay, utilizing the D2 cell line described in Example 26, was performed in the presence and absence of the non-hydrolyzable guanine nucleotide (GTP analogue) Gpp(NH)p.

[5] = biological target: alpha2-adrenergic receptor; test: Alpha2-adrenergic (non-selective) binding assay ([3H]RX 781094); set-up: species or system rat; settings: for α2 receptor binding affinity: in words
[6] = biological target: 5HT1 serotonin receptor; test: Serotonin (5HT1) binding assay
Experimental: In these assays, the binding reaction was initiated by the addition of varying concentrations of the potential binding composition and a radioligand to an appropriate tissue. The assay was then incubated to allow binding. Binding was then terminated by dilution of the assay with a cold buffer, followed by rapid vacuum filtration onto Whatman GI/C filters that were presoaked in 0.1% polyethylene imine for at least 3 hours. Radioactivity trapped onto the filters was determined and compared to control values in order to ascertain any interactions of test compounds with the binding sites.
Incubation was conducted in 50 mM TRIS-HCl (pH 7.4) at 45 minutes for 37° C. The radioligand used was [^3 H]Hydroxytryptamine binoxalate (15-30 Ci/mmol). The final ligand concentration was 3.0 nM.

[7] = biological target: T4, D1 dopamine receptor (Rattus norvegicus, UniProt P18901); test: Dopamine D1 binding assay ([3H]SCH 23390); settings: Table III; rat striatal membranes; read-out: D1 receptor binding affinity Ki
T4 construct: rat striatal membranes; from tissue; host or cells: rat striatum membranes
Experimental: The final radioligand concentration was 0.5 nM.

[8] = biological target: T5, 5HT1A serotonin receptor (Bos taurus, UniProt F6Q2H9); test: Serotonin (5HT1A) binding assay ([3H]-8-OH-DPAT); set-up: species or system bovine; settings: for 5HT1A serotonin receptor binding affinity: in words
T5 construct: bovine hippocampus; from tissue; host or cells: bovine hippocampus
T5 sequence (F6Q2H9 1-422): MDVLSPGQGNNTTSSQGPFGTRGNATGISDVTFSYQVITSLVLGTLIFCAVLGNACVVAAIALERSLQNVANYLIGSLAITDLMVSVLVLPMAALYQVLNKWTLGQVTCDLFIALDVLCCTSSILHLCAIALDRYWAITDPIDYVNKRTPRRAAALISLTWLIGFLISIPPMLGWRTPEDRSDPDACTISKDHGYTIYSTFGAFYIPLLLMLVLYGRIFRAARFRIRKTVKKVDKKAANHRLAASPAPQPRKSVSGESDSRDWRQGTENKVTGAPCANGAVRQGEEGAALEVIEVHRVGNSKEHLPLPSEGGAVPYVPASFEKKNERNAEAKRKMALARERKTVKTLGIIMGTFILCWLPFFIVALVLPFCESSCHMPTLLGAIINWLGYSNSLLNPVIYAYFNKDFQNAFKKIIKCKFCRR

[9] = biological target: beta-adrenergic receptor; test: Beta-adrenergic (non-selective) binding assay ([3H]DHA); set-up: species or system rat
[10] = tested on: 5HT3 serotonin receptor; test: Serotonin (5HT3) binding assay ([3H]GR65630, NIE-115 neuroblastoma cells)
Experimental: The binding affinities of the compositions of this invention were assayed for various receptors. In these assays, the binding reaction was initiated by the addition of varying concentrations of the potential binding composition and a radioligand to an appropriate tissue. The assay was then incubated to allow binding. Binding was then terminated by dilution of the assay with a cold buffer, followed by rapid vacuum filtration onto Whatman GI/C filters that were presoaked in 0.1% polyethylene imine for at least 3 hours. Radioactivity trapped onto the filters was determined and compared to control values in order to ascertain any interactions of test compounds with the binding sites.
Incubation was conducted in 20 mM HEPES (pH 7.4) containing 150 mM NaCl at 25° C. for 30 minutes. The radioligand used was [^3 H]GR65630 (30-50 Ci/mmol). The final ligand concentration was 0.7 nM.

[11] = read-out: α1 receptor binding affinity Ki, Table III, rat forebrain membranes
[12] = Table XV, with Gpp(NH)p, read-out: D2 receptor binding Ki with Gpp(NH)p
[13] = Table III, rat cortical membranes, read-out: α2 receptor binding affinity Ki
[14] = read-out: 5-HT1 receptor binding affinity Ki, Table III, rat cortical membranes
[15] = 5-HT2 receptor binding affinity Ki
[16] = Table III, bovine hippocampus, read-out: 5-HT1A receptor binding affinity Ki
[17] = Table III, rat striatal membranes, read-out: D2 receptor binding affinity Ki
[18] = 5-HT1A receptor binding affinity Ki, Table III, bovine hippocampus
[19] = read-out: Ki of reference compounds, 5HT1, Table VII
[20] = Table VIII, read-out: Ki of reference compounds, 5HT1A
[21] = Table VI, read-out: Ki of reference compounds, beta-adrenergic
[22] = Table V, read-out: Ki of reference compounds, alpha2-adrenergic
[23] = read-out: Ki of reference compounds, 5HT3, Table X

T1 sequence (P14842 whole entry): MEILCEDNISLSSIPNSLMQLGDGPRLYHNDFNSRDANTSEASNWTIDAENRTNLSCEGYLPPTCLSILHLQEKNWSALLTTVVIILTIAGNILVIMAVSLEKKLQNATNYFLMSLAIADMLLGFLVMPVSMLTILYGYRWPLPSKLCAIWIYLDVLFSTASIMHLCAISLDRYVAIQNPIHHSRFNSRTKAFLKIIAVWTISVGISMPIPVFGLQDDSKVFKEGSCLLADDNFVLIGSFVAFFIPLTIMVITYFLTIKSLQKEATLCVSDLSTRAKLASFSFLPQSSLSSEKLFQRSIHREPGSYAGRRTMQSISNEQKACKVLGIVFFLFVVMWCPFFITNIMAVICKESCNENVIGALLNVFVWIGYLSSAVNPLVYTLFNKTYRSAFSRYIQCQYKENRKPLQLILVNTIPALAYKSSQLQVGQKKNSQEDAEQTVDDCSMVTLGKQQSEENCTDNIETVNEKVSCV
T2 sequence (P61169 whole entry): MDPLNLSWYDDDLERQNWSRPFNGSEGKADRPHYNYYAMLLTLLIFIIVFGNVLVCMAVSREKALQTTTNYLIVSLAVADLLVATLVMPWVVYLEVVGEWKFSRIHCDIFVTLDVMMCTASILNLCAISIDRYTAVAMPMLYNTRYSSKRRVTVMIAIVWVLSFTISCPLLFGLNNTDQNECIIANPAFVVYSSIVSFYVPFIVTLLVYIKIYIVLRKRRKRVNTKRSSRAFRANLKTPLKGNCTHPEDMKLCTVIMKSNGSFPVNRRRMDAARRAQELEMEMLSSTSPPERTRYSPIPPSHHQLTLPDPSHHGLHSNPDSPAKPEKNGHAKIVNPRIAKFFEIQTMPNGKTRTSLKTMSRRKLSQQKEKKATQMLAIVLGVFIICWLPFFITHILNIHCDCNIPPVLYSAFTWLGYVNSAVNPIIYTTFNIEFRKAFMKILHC
T3 sequence (P61169 whole entry): as above
T4 sequence (P18901 whole entry): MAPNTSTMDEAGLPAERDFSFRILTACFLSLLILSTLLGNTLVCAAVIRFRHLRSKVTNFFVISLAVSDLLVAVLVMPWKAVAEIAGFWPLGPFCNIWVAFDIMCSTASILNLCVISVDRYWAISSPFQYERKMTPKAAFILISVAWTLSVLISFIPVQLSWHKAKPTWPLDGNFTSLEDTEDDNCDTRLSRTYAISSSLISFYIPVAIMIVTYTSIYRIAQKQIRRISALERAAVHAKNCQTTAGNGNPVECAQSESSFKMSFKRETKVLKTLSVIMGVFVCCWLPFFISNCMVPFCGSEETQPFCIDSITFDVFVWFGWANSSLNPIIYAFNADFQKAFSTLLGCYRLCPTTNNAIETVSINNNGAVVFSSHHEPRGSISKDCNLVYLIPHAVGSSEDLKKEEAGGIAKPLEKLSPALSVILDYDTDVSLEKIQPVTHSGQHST

For Oc1ccc2c(c1O)CC[C@@H]1[C@@H]2CCCN1CCc1cccs1 (relative stereo) [(-)-trans-33], the “5HT2 serotonin receptor binding affinity” value [1] was “high binding affinities for the 5HT2 serotonin receptor”.
For Oc1cccc2c1CC[C@H]1[C@@H]2CCCN1CCc1ccccc1 (relative stereo) [cis-25, Cis-7-hydroxy-4-phenethyl-1,2,3,4,4a,5,6,10b-octahydrobenzo[f]quinoline], the “α1 receptor binding affinity” value [2] was “high binding affinities for the α1 receptor”, the Ki [2, 11] was 16 nM and the Ki [3] was 6.6 nM. The “dopamine receptor binding affinity” value [3] was “good dopamine receptor binding affinities”, the “selectivity for the D2 over the D1 dopamine receptor” value (from here on “selectivity for the D2”) [3] was “highly selective for the D2 dopamine receptor over the D1 dopamine receptor” and the “Ratio of +:- Gpp(NH)p” value ([4]; Table XV) was 1.07. The Ki [4, 12] was 176 ± 213 nM, the Ki ([4]; Table XV, without Gpp(NH)p, read-out: D2 receptor binding Ki without Gpp(NH)p) was 164 ± 51 nM and the D2 agonist/antagonist assessment [4] was “appear to be an antagonist”. For the same compound, the “effect of GTP on D2 receptor binding” value [4] was “the addition of GTP did not significantly affect receptor binding affinity”, the Ki [5, 13] was 0.27 nM and the “α2 receptor binding affinity” value [5] was “high binding affinities for the α2 receptor”.
Oc1cccc2c1CC[C@H]1[C@H]2CCCN1CCc1ccccc1 (relative stereo) [trans-25, Trans-7-hydroxy-4-phenethyl-1,2,3,4,4a,5,6,10b-octahydrobenzo[f]quinoline] was tested, and the “α1 receptor binding affinity” value [2] was “high binding affinities for the α1 receptor”, the Ki [2, 11] was 4.5 nM and the Ki [6, 14] was 470 nM. For the same compound, the Ki [3] was 0.87 nM, the “dopamine receptor binding affinity” value [3] was “good dopamine receptor binding affinities” and the “selectivity for the D2” value [3] was “highly selective for the D2 dopamine receptor over the D1 dopamine receptor”. The Ki [4] was 37 ± 9 nM, the “Ratio of +:- Gpp(NH)p” value ([4]; Table XV) was 34.7 and the Ki [4, 12] was 1270 ± 1640 nM. The D2 agonist/antagonist assessment [4] was “appear to be agonists”, the “effect of GTP on D2 receptor binding” value [4] was “D2 receptor binding was enhanced by the addition of GTP” and the “5HT2 serotonin receptor binding affinity” value [1] was “high binding affinities for the 5HT2 serotonin receptor”. For the same compound, the Ki [1, 15] was 27 nM, the Ki [5, 13] was 0.22 nM and the “α2 receptor binding affinity” value [5] was “high binding affinities for the α2 receptor”. The Ki [7] was 5100 nM.
Oc1cccc2c1CC[C@@H]1[C@@H]2CCCN1CCc1cccs1 (relative stereo) [trans-31] was tested, and the “α1 receptor binding affinity” value [2] was “high binding affinities for the α1 receptor”, the Ki [2, 11] was 17 nM and the Ki [3] was 1.9 nM. For the same compound, the “dopamine receptor binding affinity” value [3] was “good dopamine receptor binding affinities”, the “selectivity for the D2” value [3] was “highly selective for the D2 dopamine receptor over the D1 dopamine receptor” and the Ki [1] was 80 nM. The “5HT2 serotonin receptor binding affinity” value ([1]; in words) was “high binding affinities for the 5HT2 serotonin receptor”, the Ki [5, 13] was 7.2 nM and the “α2 receptor binding affinity” value [5] was “high binding affinities for the α2 receptor”. The Ki [8, 16] was 36 nM and the “5HT1A serotonin receptor binding affinity” value [8] was “high binding affinities for the 5HT1A serotonin receptor”.
Oc1ccc2c(c1O)CC[C@@H]1[C@@H]2CCCN1CCc1cccs1 (relative stereo) [trans-33] gave a Ki [2, 11] of 180 nM, a Ki [6, 14] of 1800 nM and a Ki [3] of 57 nM. The “dopamine receptor binding affinity” value [3] was “good dopamine receptor binding affinities”, the “selectivity for the D2” value [3] was “highly selective for the D2 dopamine receptor over the D1 dopamine receptor” and the Ki [1] was 100 nM. For the same compound, the Ki [5, 13] was 19 nM, the “α2 receptor binding affinity” value [5] was “high binding affinities for the α2 receptor” and the Ki [8, 16] was 190 nM. The “5HT1A serotonin receptor binding affinity” value [8] was “high binding affinities for the 5HT1A serotonin receptor”.
In the case of Oc1ccc2c(c1O)CC[C@@H]1[C@H]2CCCN1CCc1ccccc1 (single isomer, unassigned) [cis-(-)-9], the Ki [2, 11] is reported as 180 nM, the Ki [3] is reported as 54 nM and the “dopamine receptor binding affinity” value [3] is reported as “good dopamine receptor binding affinities”. The “selectivity for the D2” value [3] was “highly selective for the D2 dopamine receptor over the D1 dopamine receptor”, the Ki [5, 13] was 74 nM and the “α2 receptor binding affinity” value [5] was “high binding affinities for the α2 receptor”.
With Oc1ccc2c(c1O)CC[C@H]1[C@H]2CCCN1CCc1ccccc1 (single isomer, unassigned) [trans-(+)-9, Trans-(+)7,8-dihydroxy-4-phenethyl-1,2,3,4,4a,5,6, 10b-octahydrobenzo[f]quinoline] the “α1 receptor binding affinity” value [2] was “high binding affinities for the α1 receptor”, the Ki [2, 11] was 53 nM and the Ki [3, 17] was 2500 nM. It also gave a Ki [5, 13] of 550 nM and a Ki [8, 18] of 910 nM.
For Oc1cccc2c1CC[C@@H]1[C@@H]2CCCN1CCc1ccccc1 (single isomer, unassigned) [trans-(+)-25], the “α1 receptor binding affinity” value [2] was “high binding affinities for the α1 receptor”, the Ki [2, 11] was 5.5 nM and the Ki [3, 17] was 400 nM. For the same compound, the “5HT2 serotonin receptor binding affinity” value [1] was “high binding affinities for the 5HT2 serotonin receptor”, the Ki [1, 15] was 9.5 nM and the Ki [5, 13] was 440 nM. For the same compound, the Ki [8, 18] was 410 nM.
Oc1ccc2c(c1O)CC[C@H]1[C@H]2CCCN1CCc1ccccc1 (single isomer, unassigned) [trans-(-)-9, Trans-(-)-7,8-Dihydroxy-4-phenethyl-1,2,3,4,4a,5,6, 10b-octahydrobenzo[f]quinoline] showed a Ki [2, 11] of 130 nM, a Ki [6, 14] of 3300 nM and a Ki [3] of 0.38 nM. The “dopamine receptor binding affinity” value [3] was “good dopamine receptor binding affinities”, the “selectivity for the D2” value [3] was “highly selective for the D2 dopamine receptor over the D1 dopamine receptor” and the Ki [1] was 26 nM. For the same compound, the “5HT2 serotonin receptor binding affinity” value ([1]; in words) was “high binding affinities for the 5HT2 serotonin receptor”, the Ki [5, 13] was 9 nM and the “α2 receptor binding affinity” value [5] was “high binding affinities for the α2 receptor”. The Ki [8, 18] was 67 nM, the “5HT1A serotonin receptor binding affinity” value [8] was “high binding affinities for the 5HT1A serotonin receptor” and the Ki [7] was 3500 nM.
For COc1ccc2[nH]cc(CCN)c2c1 [5-Methoxytryptamine, reference compound], the Ki [6, 19] was 45.8 nM.
CCCN(CCC)C1CCc2cccc(O)c2C1 (stereo not drawn) [8-OH-DPAT, reference compound] was tested, and the Ki ([8]; Ki characterizing the 5HT1A assay, assay characterization) was 2 nM and the Ki [8, 20] was 1.4 nM.
Work on CC(C)(C)NCC(O)c1ccc(O)c(CO)c1 (stereo not drawn) [Albuterol] yielded a Ki [9, 21] of 2880 nM.
C=CCc1ccccc1OCC(O)CNC(C)C (stereo not drawn) [Alprenolol] was tested, and the Ki [9, 21] was 3.5 nM and the Ki ([9]; assay characterization, read-out: Ki characterizing the beta assay) was 1.74 nM.
Compound Clc1cccc(Cl)c1N=C1NCCN1 [Clonidine, reference compound] has a Ki [5, 22] of 14 nM.
For O=C(c1ccc(F)cc1)C1CCN(CCn2c(=O)[nH]c3ccccc3c2=O)CC1 [Ketanserin, reference compound], the Ki [8, 20] was > 10000 nM.
Work on CN1[C@@H]2CC[C@H]1C[C@@H](OC(=O)c1cc(Cl)cc(Cl)c1)C2 [MDL-72222] yielded a Ki ([10]; read-out: Ki characterizing the 5HT3 assay, assay characterization) of 0.3 nM and a Ki [10, 23] of 7.2 nM.
Compound CCN(CC)CCNC(=O)c1cc(Cl)c(N)cc1OC [Metoclopramide] has a Ki [10, 23] of 191 nM.
In the case of COCCc1ccc(OCC(O)CNC(C)C)cc1 (stereo not drawn) [Metoprotol], the Ki [9, 21] is reported as 45 nM.
Work on Cc1ccc(N(CC2=NCCN2)c2cccc(O)c2)cc1 [Phentolamine, reference compound] yielded a Ki [5, 22] of 1.7 nM.
In the case of CC(C)NCC(O)COc1cccc2[nH]ccc12 (stereo not drawn) [Pindolol], the Ki [9, 21] is reported as 1.1 nM.
Compound c1ccc2nc(N3CCNCC3)ccc2c1 [Quipazin] has a Ki [10, 23] of 1.5 nM.
NCCc1c[nH]c2ccc(O)cc12 [Serotonin, reference compound] was tested, and the Ki ([6]; read-out: Ki characterizing the 5HT1 assay, assay characterization) was 2.8 nM, the Ki [6, 19] was 4.6 nM and the Ki [10, 23] was 18.7 nM.
With COc1cccc(OC)c1OCCNCC1COc2ccccc2O1 (stereo not drawn) [WB4101, reference compound] the Ki ([2]; read-out: Ki of reference compounds, alpha1-adrenergic, Table IV) was 2.6 nM.
